Results as given in ChEMBL document CHEMBL4304811, “Development of a Water-Soluble Indolylmaleimide Derivative IM-93 Showing Dual Inhibition of Ferroptosis and NETosis” (ACS Med Chem Lett, 2019).

Assays:
[1] = tested on: Mast/stem cell growth factor receptor Kit (Homo sapiens), P10721 [L576P]; assay: Binding affinity to human partial length KIT L576P mutant (Y545 to D952 residues) expressed in bacterial expression system assessed as residual binding level at 10 uM by Kinomescan method relative to control
[2] = molecular target: SRSF protein kinase 1 (Homo sapiens) (UniProt Q96SB4); assay: Binding affinity to wild-type human full length SRPK1 (M1 to S655 residues) expressed in bacterial expression system assessed as residual binding level at 10 uM by Kinomescan method relative to control
[3] = tested on: ALK tyrosine kinase receptor (Homo sapiens), Q9UM73 [L1196M]; assay: Binding affinity to […] human partial length ALK L1196M mutant (I1088 to E1409 residues) expressed in mammalian expression system assessed as residual binding level at 10 uM by Kinomescan method relative to control
[4] = molecular target: Serine/threonine-protein kinase RIO2 (Homo sapiens) (UniProt Q9BVS4); assay: Binding affinity to wild-type human partial length RIOK2 (M1 to D313 residues) expressed in mammalian expression system assessed as residual binding level at 10 uM by Kinomescan method relative to control
[5] = molecular target: Interferon-induced, double-stranded RNA-activated protein kinase (Homo sapiens) (UniProt P19525); assay: Binding affinity to wild-type human partial length PRKR (F247 to C551 residues) expressed in bacterial expression system assessed as residual binding level at 10 uM by Kinomescan method relative to control
[6] = molecular target: Cyclin-dependent kinase 19 (Homo sapiens) (UniProt Q9BWU1); assay: Binding affinity to wild-type human partial length CDK11 (M1 to N360 residues) expressed in bacterial expression system assessed as residual binding level at 10 uM by Kinomescan method relative to control
[7] = molecular target: Serine/threonine-protein kinase 32A (Homo sapiens) (UniProt Q8WU08); assay: Binding affinity to wild-type human full length YANK1 (M1 to L396 residues) expressed in mammalian expression system assessed as residual binding level at 10 uM by Kinomescan method relative to control
[8] = tested on: Mast/stem cell growth factor receptor Kit (Homo sapiens), P10721 [D816V]; assay: Binding affinity to human partial length KIT D816V mutant (I571 to D952 residues) expressed in bacterial expression system assessed as residual binding level at 10 uM by Kinomescan method relative to control
[9] = molecular target: Leucine-rich repeat serine/threonine-protein kinase 2 (Homo sapiens) (UniProt Q5S007); assay: Binding affinity to wild-type human partial length LRRK2 (H970 to E2527 residues) expressed in mammalian expression system assessed as residual binding level at 10 uM by Kinomescan method relative to control
[10] = molecular target: Serine/threonine-protein kinase MRCK gamma (Homo sapiens) (UniProt Q6DT37); assay: Binding affinity to wild-type human partial length DMPK2 (S46 to S408 residues) expressed in bacterial expression system assessed as residual binding level at 10 uM by Kinomescan method relative to control
[11] = molecular target: Serine/threonine-protein kinase OSR1 (Homo sapiens) (UniProt O95747); assay: Binding affinity to wild-type human full length OSR1 (M1 to S527 residues) expressed in mammalian expression system assessed as residual binding level at 10 uM by Kinomescan method relative to control
[12] = molecular target: Cyclin-dependent kinase 5 (Homo sapiens) (UniProt Q00535); assay: Binding affinity to wild-type human full length CDK5 (M1 to P292 residues) expressed in bacterial expression system assessed as residual binding level at 10 uM by Kinomescan method relative to control
[13] = molecular target: Cyclin-dependent kinase-like 3 (Homo sapiens) (UniProt Q8IVW4); assay: Binding affinity to wild-type human partial length CDKL3 (M1 to D327 residues) expressed in bacterial expression system assessed as residual binding level at 10 uM by Kinomescan method relative to control
[14] = molecular target: Dual specificity testis-specific protein kinase 1 (Homo sapiens) (UniProt Q15569); assay: Binding affinity to wild-type human full length TESK1 (R37 to S626 residues) expressed in bacterial expression system assessed as residual binding level at 10 uM by Kinomescan method relative to control
[15] = molecular target: Protein kinase C delta type (Homo sapiens) (UniProt Q05655); assay: Binding affinity to wild-type human partial length PRKCD (Q328 to D676 residues) expressed in bacterial expression system assessed as residual binding level at 10 uM by Kinomescan method relative to control
[16] = molecular target: Myosin light chain kinase family member 4 (Homo sapiens) (UniProt Q86YV6); assay: Binding affinity to wild-type human partial length MYLK4 (V79 to S380 residues) expressed in bacterial expression system assessed as residual binding level at 10 uM by Kinomescan method relative to control
[17] = molecular target: Myosin-IIIb (Homo sapiens) (UniProt Q8WXR4); assay: Binding affinity to wild-type human partial length MYO3B (M1 to D357 residues) expressed in bacterial expression system assessed as residual binding level at 10 uM by Kinomescan method relative to control
[18] = molecular target: Cyclin-dependent kinase 9 (Homo sapiens) (UniProt P50750); assay: Binding affinity to wild-type human full length CDK9 (M1 to F372 residues) expressed in bacterial expression system assessed as residual binding level at 10 uM by Kinomescan method relative to control
[19] = molecular target: Receptor-interacting serine/threonine-protein kinase 4 (Homo sapiens) (UniProt P57078); assay: Binding affinity to wild-type human partial length RIPK4 (M1 to V303 residues) expressed in mammalian expression system assessed as residual binding level at 10 uM by Kinomescan method relative to control
[20] = molecular target: Dual specificity mitogen-activated protein kinase kinase 2 (Homo sapiens) (UniProt P36507); assay: Binding affinity to wild-type human full length MEK2 (M1 to V400 residues) expressed in mammalian expression system assessed as residual binding level at 10 uM by Kinomescan method relative to control
[21] = tested on: Epidermal growth factor receptor (Homo sapiens), P00533 [L858R]; assay: Binding affinity to human partial length EGFR L858R mutant (R669 to V1011 residues) expressed in bacterial expression system assessed as residual binding level at 10 uM by Kinomescan method relative to control
[22] = molecular target: Phosphatidylinositol 3-kinase C2 domain-containing subunit gamma (Homo sapiens) (UniProt O75747); assay: Binding affinity to wild-type human partial length PIK3C2G (M1 to I1446 residues) expressed in mammalian expression system assessed as residual binding level at 10 uM by Kinomescan method relative to control
[23] = molecular target: Serine/threonine-protein kinase Chk2 (Homo sapiens) (UniProt O96017); assay: Binding affinity to wild-type human partial length CHEK2 (S253 to E574 residues) expressed in bacterial expression system assessed as residual binding level at 10 uM by Kinomescan method relative to control
[24] = molecular target: Protein kinase C theta type (Homo sapiens) (UniProt Q04759); assay: Binding affinity to wild-type human partial length PRKCQ (L350 to S706 residues) expressed in bacterial expression system assessed as residual binding level at 10 uM by Kinomescan method relative to control

Phosphatidylinositol 3-kinase C2 domain-containing subunit gamma (Homo sapiens), sequence (O75747 whole entry, the tested form may be a part): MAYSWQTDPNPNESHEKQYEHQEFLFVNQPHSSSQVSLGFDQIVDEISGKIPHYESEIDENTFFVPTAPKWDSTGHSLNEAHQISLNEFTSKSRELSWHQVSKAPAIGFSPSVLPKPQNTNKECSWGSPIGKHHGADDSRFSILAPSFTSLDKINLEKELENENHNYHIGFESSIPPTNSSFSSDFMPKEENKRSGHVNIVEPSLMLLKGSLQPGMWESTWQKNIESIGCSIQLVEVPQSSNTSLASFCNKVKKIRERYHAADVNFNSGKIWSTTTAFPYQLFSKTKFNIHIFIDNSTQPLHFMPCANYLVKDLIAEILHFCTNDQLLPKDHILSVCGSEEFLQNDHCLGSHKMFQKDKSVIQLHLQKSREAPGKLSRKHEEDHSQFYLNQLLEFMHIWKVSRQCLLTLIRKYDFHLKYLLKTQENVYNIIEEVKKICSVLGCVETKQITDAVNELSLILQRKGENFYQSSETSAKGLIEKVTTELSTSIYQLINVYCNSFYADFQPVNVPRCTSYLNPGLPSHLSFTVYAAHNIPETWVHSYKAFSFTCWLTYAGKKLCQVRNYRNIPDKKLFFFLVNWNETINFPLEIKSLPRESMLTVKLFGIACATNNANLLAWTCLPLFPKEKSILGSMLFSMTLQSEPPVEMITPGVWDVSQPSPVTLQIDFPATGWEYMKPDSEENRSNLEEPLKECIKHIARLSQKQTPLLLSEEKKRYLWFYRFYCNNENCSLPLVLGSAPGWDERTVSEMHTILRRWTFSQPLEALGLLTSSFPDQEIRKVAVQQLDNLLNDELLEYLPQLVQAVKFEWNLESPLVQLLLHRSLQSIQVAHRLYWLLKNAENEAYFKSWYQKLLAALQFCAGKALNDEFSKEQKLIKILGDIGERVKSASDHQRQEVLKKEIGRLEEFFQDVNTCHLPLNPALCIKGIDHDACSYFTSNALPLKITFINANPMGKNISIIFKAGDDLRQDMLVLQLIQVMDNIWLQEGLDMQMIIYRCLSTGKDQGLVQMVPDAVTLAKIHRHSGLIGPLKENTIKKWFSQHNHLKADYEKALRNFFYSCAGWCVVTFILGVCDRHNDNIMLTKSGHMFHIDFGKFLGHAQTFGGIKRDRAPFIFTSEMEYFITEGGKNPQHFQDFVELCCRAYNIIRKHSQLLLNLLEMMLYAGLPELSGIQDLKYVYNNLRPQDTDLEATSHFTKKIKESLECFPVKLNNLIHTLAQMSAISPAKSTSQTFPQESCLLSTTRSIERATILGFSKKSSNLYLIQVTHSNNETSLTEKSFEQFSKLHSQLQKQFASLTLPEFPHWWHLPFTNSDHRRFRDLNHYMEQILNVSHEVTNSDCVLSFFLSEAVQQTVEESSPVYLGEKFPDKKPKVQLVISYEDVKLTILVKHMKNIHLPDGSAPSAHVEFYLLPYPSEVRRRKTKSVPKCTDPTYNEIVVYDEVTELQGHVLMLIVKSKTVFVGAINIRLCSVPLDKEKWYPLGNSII
Cyclin-dependent kinase 5 (Homo sapiens), sequence (Q00535 whole entry, looked up, the tested form may be a part): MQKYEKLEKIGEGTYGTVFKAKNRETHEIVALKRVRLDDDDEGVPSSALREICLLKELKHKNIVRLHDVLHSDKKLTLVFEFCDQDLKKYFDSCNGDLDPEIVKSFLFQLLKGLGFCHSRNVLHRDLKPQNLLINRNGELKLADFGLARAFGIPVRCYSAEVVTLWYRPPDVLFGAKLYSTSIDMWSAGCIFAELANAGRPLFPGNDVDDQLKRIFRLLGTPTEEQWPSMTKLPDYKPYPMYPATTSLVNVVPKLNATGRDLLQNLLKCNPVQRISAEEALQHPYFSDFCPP
Dual specificity testis-specific protein kinase 1 (Homo sapiens), sequence (Q15569 whole entry, looked up, the tested form may be a part): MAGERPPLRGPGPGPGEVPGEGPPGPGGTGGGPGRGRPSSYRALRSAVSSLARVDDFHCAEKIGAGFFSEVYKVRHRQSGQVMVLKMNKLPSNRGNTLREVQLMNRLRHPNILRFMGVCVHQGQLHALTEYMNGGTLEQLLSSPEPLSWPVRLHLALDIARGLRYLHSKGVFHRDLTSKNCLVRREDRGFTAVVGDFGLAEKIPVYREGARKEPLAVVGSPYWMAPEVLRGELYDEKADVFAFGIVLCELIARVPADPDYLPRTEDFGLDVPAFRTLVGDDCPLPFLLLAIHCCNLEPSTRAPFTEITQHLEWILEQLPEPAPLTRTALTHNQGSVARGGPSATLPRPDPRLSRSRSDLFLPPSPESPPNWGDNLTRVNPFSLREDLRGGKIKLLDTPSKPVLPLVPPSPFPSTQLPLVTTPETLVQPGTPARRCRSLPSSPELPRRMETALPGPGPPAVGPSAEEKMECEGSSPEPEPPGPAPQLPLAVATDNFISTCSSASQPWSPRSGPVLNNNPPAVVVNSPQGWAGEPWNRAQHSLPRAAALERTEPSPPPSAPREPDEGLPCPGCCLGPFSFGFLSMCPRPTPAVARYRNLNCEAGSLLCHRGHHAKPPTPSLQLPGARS
ALK tyrosine kinase receptor (Homo sapiens), Q9UM73 [L1196M], sequence (Q9UM73 whole entry L1196M, looked up, the tested form may be a part): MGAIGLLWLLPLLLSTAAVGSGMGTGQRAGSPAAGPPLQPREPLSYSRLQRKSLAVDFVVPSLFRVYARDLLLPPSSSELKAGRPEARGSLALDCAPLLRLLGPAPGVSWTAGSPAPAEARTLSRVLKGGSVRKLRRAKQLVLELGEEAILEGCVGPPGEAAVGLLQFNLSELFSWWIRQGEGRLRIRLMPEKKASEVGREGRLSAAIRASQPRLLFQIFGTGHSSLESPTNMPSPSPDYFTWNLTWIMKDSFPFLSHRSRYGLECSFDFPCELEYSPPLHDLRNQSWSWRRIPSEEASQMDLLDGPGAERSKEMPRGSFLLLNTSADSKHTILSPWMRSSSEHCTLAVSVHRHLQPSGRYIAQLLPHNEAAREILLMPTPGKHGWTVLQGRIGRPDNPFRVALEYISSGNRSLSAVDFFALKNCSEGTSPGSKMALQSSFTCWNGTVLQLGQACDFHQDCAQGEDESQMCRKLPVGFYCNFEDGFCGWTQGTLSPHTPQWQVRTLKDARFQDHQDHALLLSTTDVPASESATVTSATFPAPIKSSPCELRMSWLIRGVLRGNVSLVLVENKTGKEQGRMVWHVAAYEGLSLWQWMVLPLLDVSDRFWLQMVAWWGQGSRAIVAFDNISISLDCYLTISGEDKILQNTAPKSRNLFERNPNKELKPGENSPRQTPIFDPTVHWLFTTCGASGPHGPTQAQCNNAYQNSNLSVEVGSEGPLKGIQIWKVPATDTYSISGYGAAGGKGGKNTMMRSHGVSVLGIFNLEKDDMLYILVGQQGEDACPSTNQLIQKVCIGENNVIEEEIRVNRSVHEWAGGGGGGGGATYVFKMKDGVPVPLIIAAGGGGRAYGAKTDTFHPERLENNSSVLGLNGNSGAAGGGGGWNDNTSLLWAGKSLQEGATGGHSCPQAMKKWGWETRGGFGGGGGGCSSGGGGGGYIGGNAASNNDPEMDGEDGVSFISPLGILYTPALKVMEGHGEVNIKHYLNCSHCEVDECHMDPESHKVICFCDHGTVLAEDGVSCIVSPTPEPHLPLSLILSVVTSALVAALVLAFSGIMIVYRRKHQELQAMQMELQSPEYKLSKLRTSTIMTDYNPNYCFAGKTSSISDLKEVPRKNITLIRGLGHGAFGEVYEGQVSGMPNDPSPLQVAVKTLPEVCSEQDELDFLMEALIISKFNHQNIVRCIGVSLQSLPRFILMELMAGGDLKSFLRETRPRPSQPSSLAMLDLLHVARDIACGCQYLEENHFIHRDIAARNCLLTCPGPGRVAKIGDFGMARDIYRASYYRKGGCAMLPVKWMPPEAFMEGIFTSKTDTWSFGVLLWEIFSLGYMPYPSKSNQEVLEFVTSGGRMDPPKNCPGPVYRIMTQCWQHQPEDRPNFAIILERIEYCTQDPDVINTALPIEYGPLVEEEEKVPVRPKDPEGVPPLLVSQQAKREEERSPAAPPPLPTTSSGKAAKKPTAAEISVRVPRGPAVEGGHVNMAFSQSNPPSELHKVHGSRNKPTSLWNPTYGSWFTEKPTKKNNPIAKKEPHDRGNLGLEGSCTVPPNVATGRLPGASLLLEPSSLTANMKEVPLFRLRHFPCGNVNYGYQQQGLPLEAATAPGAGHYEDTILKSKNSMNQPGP
Serine/threonine-protein kinase RIO2 (Homo sapiens), sequence (Q9BVS4 whole entry, looked up, the tested form may be a part): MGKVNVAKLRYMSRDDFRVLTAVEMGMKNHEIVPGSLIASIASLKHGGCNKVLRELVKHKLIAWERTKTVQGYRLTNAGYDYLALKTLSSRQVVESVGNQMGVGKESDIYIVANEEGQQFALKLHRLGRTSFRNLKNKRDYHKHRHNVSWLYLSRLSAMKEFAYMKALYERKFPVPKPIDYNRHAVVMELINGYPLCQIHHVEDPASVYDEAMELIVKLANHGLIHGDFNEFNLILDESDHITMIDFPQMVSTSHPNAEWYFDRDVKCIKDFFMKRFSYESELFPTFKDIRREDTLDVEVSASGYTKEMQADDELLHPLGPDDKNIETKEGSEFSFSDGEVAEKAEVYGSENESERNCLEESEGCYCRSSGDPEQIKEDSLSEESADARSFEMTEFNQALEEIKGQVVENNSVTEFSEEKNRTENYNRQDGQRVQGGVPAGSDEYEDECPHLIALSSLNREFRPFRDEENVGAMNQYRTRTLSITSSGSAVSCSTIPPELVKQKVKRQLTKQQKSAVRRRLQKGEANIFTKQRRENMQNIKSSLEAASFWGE
Serine/threonine-protein kinase OSR1 (Homo sapiens), sequence (O95747 2-527 limits assumed): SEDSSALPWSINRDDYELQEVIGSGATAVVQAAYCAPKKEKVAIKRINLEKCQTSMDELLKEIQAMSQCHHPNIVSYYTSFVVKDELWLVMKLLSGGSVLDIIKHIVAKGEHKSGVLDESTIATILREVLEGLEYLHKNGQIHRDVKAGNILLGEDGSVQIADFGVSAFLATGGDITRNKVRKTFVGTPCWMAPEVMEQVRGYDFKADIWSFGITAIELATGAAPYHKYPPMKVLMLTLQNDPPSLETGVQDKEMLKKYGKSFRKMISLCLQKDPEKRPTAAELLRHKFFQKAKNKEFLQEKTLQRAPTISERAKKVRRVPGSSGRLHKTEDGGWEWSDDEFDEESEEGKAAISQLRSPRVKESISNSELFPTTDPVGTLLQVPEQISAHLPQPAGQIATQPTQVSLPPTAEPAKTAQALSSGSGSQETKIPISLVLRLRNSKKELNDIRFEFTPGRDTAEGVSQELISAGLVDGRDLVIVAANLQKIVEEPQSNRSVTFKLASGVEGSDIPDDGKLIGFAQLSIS

CC(C)N1C(=O)C(NCCCN(C)C)=C(c2cn(C)c3ccccc23)C1=O.Cl
Activity [1]: 87%
Activity [2]: 83%
Activity [3]: 90%
Activity [4]: 91%
Activity [5]: 100%
Activity [6]: 94%
Activity [7]: 67%
Activity [8]: 94%
Activity [9]: 94%
Activity [10]: 93%
Activity [11]: 77%
Activity [12]: 96%
Activity [13]: 100%
Activity [14]: 82%
Activity [15]: 100%
Activity [16]: 100%
Activity [17]: 90%
Activity [18]: 100%
Activity [19]: 100%
Activity [20]: 94%
Activity [21]: 82%
Activity [22]: 84%
Activity [23]: 80%
Activity [24]: 100%
